Experimental data: PubChem BioAssay (NCI)
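Exposure lasted 48 hours, with cells grown in 96-well plates and compounds tested at five concentrations. At the TGI there is no net growth.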

Columns and labels:
Assay in all cases: NCI tumour cell line growth inhibition, 48 h
786-0 renal = test system: 786-0 renal
HCC-2998 colon = test system: HCC-2998 colon
SNB-75 CNS = test system: SNB-75 CNS
M14 melanoma = test system: M14 melanoma
LXFL 529 NSCLC = test system: LXFL 529 NSCLC
NCI-H23 lung = test system: NCI-H23 lung
SK-MEL-28 melanoma = test system: SK-MEL-28 melanoma
MOLT-4 leukemia = test system: MOLT-4 leukemia
SW-620 colon = test system: SW-620 colon
IGROV1 ovarian = test system: IGROV1 ovarian
UACC-62 melanoma = test system: UACC-62 melanoma
RXF 393 renal = test system: RXF 393 renal
U251 CNS = test system: U251 CNS
SF-539 CNS = test system: SF-539 CNS
KM12 colon = test system: KM12 colon
HCT-116 colon = test system: HCT-116 colon
MALME-3M melanoma = test system: MALME-3M melanoma
OVCAR-8 ovarian = test system: OVCAR-8 ovarian
OVCAR-4 ovarian = test system: OVCAR-4 ovarian
UO-31 renal = test system: UO-31 renal
NCI-H460 lung = test system: NCI-H460 lung
CCRF-CEM leukemia = test system: CCRF-CEM leukemia
KM20L2 colon = test system: KM20L2 colon
COLO 205 colon = test system: COLO 205 colon
HCT-15 colon = test system: HCT-15 colon
SNB-19 CNS = test system: SNB-19 CNS
DMS 273 small cell lung = test system: DMS 273 small cell lung
HT29 colon = test system: HT29 colon
SR leukemia = test system: SR leukemia
XF 498 CNS = test system: XF 498 CNS
HOP-62 NSCLC = test system: HOP-62 NSCLC
TK-10 renal = test system: TK-10 renal
SNB-78 CNS = test system: SNB-78 CNS
SN12C renal = test system: SN12C renal
SK-OV-3 ovarian = test system: SK-OV-3 ovarian
HL-60(TB) leukemia = test system: HL-60(TB) leukemia
LOX IMVI melanoma = test system: LOX IMVI melanoma
A549 NSCLC = test system: A549 NSCLC
DLD-1 colon = test system: DLD-1 colon
SF-295 CNS = test system: SF-295 CNS
NCI-H522 lung = test system: NCI-H522 lung
K-562 leukemia = test system: K-562 leukemia
M19-MEL melanoma = test system: M19-MEL melanoma
OVCAR-3 ovarian = test system: OVCAR-3 ovarian
SK-MEL-5 melanoma = test system: SK-MEL-5 melanoma
SK-MEL-2 melanoma = test system: SK-MEL-2 melanoma
EKVX NSCLC = test system: EKVX NSCLC
SF-268 CNS = test system: SF-268 CNS
NCI-H226 lung = test system: NCI-H226 lung
UACC-257 melanoma = test system: UACC-257 melanoma
ACHN renal = test system: ACHN renal
OVCAR-5 ovarian = test system: OVCAR-5 ovarian
DMS 114 small cell lung = test system: DMS 114 small cell lung
RPMI-8226 leukemia = test system: RPMI-8226 leukemia
A498 renal = test system: A498 renal
CAKI-1 renal = test system: CAKI-1 renal

COc1ccc(Cn2c(C)nc3c2C(=O)c2ccccc2C3=O)cc1 was tested, and the TGI (786-0 renal) was 40 µM, the TGI (HCC-2998 colon) was > 75 µM and the TGI (SNB-75 CNS) was 71.9 µM. It also gave a TGI (M14 melanoma) of 23.5 µM, a TGI (LXFL 529 NSCLC) of 28.7 µM and a TGI (NCI-H23 lung) of 16.5 µM. The TGI (SK-MEL-28 melanoma) was > 75 µM, the TGI (MOLT-4 leukemia) was 30 µM and the TGI (SW-620 colon) was > 75 µM. The TGI (IGROV1 ovarian) was 38.6 µM, the TGI (UACC-62 melanoma) was 14 µM and the TGI (RXF 393 renal) was 63.4 µM. For the same molecule, the TGI (U251 CNS) was > 75 µM, the TGI (SF-539 CNS) was 38.2 µM and the TGI (KM12 colon) was 26.7 µM. For the same molecule, the TGI (HCT-116 colon) was 13 µM, the TGI (MALME-3M melanoma) was 19 µM and the TGI (OVCAR-8 ovarian) was > 75 µM. It also gave a TGI (OVCAR-4 ovarian) of 64.1 µM, a TGI (UO-31 renal) of 57.4 µM and a TGI (NCI-H460 lung) of 9.74 µM. The TGI (CCRF-CEM leukemia) was 37.3 µM, the TGI (KM20L2 colon) was > 75 µM and the TGI (COLO 205 colon) was 22.6 µM. The TGI (HCT-15 colon) was > 75 µM, the TGI (SNB-19 CNS) was > 75 µM and the TGI (DMS 273 small cell lung) was 19.7 µM. For the same molecule, the TGI (HT29 colon) was > 75 µM, the TGI (SR leukemia) was 10.4 µM and the TGI (XF 498 CNS) was 27.1 µM. For the same molecule, the TGI (HOP-62 NSCLC) was 51.7 µM, the TGI (TK-10 renal) was > 75 µM and the TGI (SNB-78 CNS) was > 75 µM. The TGI (SN12C renal) was > 75 µM, the TGI (SK-OV-3 ovarian) was > 75 µM and the TGI (HL-60(TB) leukemia) was 22.2 µM. The TGI (LOX IMVI melanoma) was 11.2 µM, the TGI (A549 NSCLC) was 36.1 µM and the TGI (DLD-1 colon) was > 75 µM. It also gave a TGI (SF-295 CNS) of 58.2 µM, a TGI (NCI-H522 lung) of 15.5 µM and a TGI (K-562 leukemia) of 30.1 µM. The TGI (M19-MEL melanoma) was 16.7 µM, the TGI (OVCAR-3 ovarian) was 24 µM and the TGI (SK-MEL-5 melanoma) was 16.6 µM. The TGI (SK-MEL-2 melanoma) was 29.8 µM, the TGI (EKVX NSCLC) was 49.2 µM and the TGI (SF-268 CNS) was 68.1 µM. The TGI (NCI-H226 lung) was 48.2 µM, the TGI (UACC-257 melanoma) was 24.7 µM and the TGI (ACHN renal) was 48.9 µM.
C1OCC2S[C@@H]3COCO[C@@H]3C2O1 (some centres undefined) was tested, and the TGI (786-0 renal) was > 100 µM, the TGI (OVCAR-5 ovarian) was > 100 µM and the TGI (HCC-2998 colon) was > 100 µM. The TGI (SNB-75 CNS) was > 100 µM, the TGI (M14 melanoma) was > 100 µM and the TGI (LXFL 529 NSCLC) was > 100 µM. For the same molecule, the TGI (NCI-H23 lung) was > 100 µM, the TGI (SK-MEL-28 melanoma) was > 100 µM and the TGI (MOLT-4 leukemia) was > 100 µM. For the same molecule, the TGI (UACC-62 melanoma) was > 100 µM, the TGI (RXF 393 renal) was > 100 µM and the TGI (DMS 114 small cell lung) was > 100 µM. The TGI (U251 CNS) was > 100 µM, the TGI (SF-539 CNS) was > 100 µM and the TGI (KM12 colon) was > 100 µM. For the same molecule, the TGI (HCT-116 colon) was > 100 µM, the TGI (MALME-3M melanoma) was > 100 µM and the TGI (OVCAR-8 ovarian) was > 100 µM. For the same molecule, the TGI (OVCAR-4 ovarian) was > 100 µM, the TGI (UO-31 renal) was > 100 µM and the TGI (NCI-H460 lung) was > 100 µM. For the same molecule, the TGI (CCRF-CEM leukemia) was > 100 µM, the TGI (KM20L2 colon) was > 100 µM and the TGI (RPMI-8226 leukemia) was > 100 µM. The TGI (COLO 205 colon) was > 100 µM, the TGI (HCT-15 colon) was > 100 µM and the TGI (SNB-19 CNS) was > 100 µM. For the same molecule, the TGI (DMS 273 small cell lung) was > 100 µM, the TGI (HT29 colon) was > 100 µM and the TGI (SR leukemia) was > 100 µM. The TGI (XF 498 CNS) was > 100 µM, the TGI (HOP-62 NSCLC) was > 100 µM and the TGI (TK-10 renal) was > 100 µM. For the same molecule, the TGI (SNB-78 CNS) was > 100 µM, the TGI (SN12C renal) was > 100 µM and the TGI (SK-OV-3 ovarian) was > 100 µM. The TGI (HL-60(TB) leukemia) was > 100 µM, the TGI (LOX IMVI melanoma) was > 100 µM and the TGI (A498 renal) was > 100 µM. For the same molecule, the TGI (A549 NSCLC) was > 100 µM, the TGI (DLD-1 colon) was > 100 µM and the TGI (SF-295 CNS) was > 100 µM. For the same molecule, the TGI (NCI-H522 lung) was > 100 µM, the TGI (K-562 leukemia) was > 100 µM and the TGI (M19-MEL melanoma) was > 100 µM. The TGI (OVCAR-3 ovarian) was > 100 µM, the TGI (SK-MEL-5 melanoma) was > 100 µM and the TGI (EKVX NSCLC) was > 100 µM. The TGI (SF-268 CNS) was > 100 µM, the TGI (NCI-H226 lung) was > 100 µM and the TGI (CAKI-1 renal) was > 100 µM. For the same molecule, the TGI (UACC-257 melanoma) was > 100 µM and the TGI (ACHN renal) was > 100 µM.
